This is an account of results in patent US12653902B2, “Photo-immunoconjugate formulations and methods of treatment relating thereto” (University of Maryland, College Park, priority 2019, dated 2026).

Data set [1] can be described thus: Absorbance at 690 nm in PBS compared to DMSO. In kind it is physicochemical. The note with it: fixed BPD concentration.
Data set [2] can be described thus: Photoactivity (maximal fluorescence intensity in PBS divided by that in DMSO). Format: physicochemical. The note with it: maximal FI in PBS divided by maximal FI in DMSO. The procedure: Photo-immunoconjugate-nanoliposomes (PIC-Nal) and photo-immunoconjugate-nanoliposomal irinotecan (PIC-Nal-IRI) were synthesized via cooper-free click chemistry (FIG. 1). Briefly, azide-containing PICs were mixed overnight with DBCO-containing Nal (or DBCO-containing Nal-IRI) at 60:1 ratio. Sepharose CL-4B size exclusion chromatography was used to purify PIC-Nal and PIC-Nal-IRI. Irinotecan and BPD concentrations were determined by UV-Vis spectroscopy and established molar extinction coefficients: 20985 M^−1cm^−1 at 380 nm for irinotecan, 80500 M^−1cm^−1 at 435 nm and 34,895 M^−1 cm^−1 at 687 nm for BPD (Table 1). Conjugation efficacy was determined by the molar ratio of PIC onto the liposomes to the total PIC added initially. Singlet oxygen sensor green (SOSG, 5 μM) was used to detect singlet oxygen (^1O2) yield upon light irradiation of PIC-Nal-IRI or controls. BPD concentration is fixed at 5 μM. A microplate reader (BioTek) was used to acquire SOSG fluorescence signals (Ex/Em: 504/525 nm) before and after light irradiation (690 nm, 150 mW/cm^2, 20 J/cm^2). Photoactivity is defined as the maximal fluorescence intensity (FI) of photosensitizer in PBS divided by the maximal FI of photosensitizer in DMSO.

A further data set relates to OVCAR-5 cells. Kind of data set: Intracellular BPD uptake (BPD fluorescence, extraction and imaging). As to conditions: 24 hours post-incubation, compared to PIC and PIC-Nal. In kind it is cell-based, human. The procedure:
For uptake and phototoxicity studies, OVCAR-5 cells (200 k cells/35-mm dish) were incubated with PIC-Nal or controls (i.e., PIC alone, no-treatment) at a fixed BPD concentration (0.25 μM) for 24 hours. For uptake study, cells were washed twice with PBS and dissolved in SOLVABLE™. The BPD fluorescence signals (Ex/Em: 435/690 nm) were acquired using a microplate reader to quantify the uptake of PIC-Nal. In another set of experiments, washed cells were fixed with 4% paraformaldehyde, and stained with DAPI. Cells were imaged with the LionHeart Imager (BioTek) using the 10× objective to visualize the BPD signal (Ex/Em: 422/690 nm) and the DAPI signal (Ex/Em: 358/461 nm). BPD fluorescence intensity was quantified using ImageJ (Schneider C A et al., NIH Image to ImageJ: 25 years of image analysis. Nat Methods 2012, 9:671-675). For phototoxicity studies, cells were irradiated with a 690 nm laser (20 J/cm^2, 150 mW/cm^2) at 24 hours post-incubation of PIC-Nal or controls. Cell viability was determined by MTT (3-(4,5-dimethylthiazol-2-yl)-2,5-diphenyltetrazolium bromide) assay (Thermo) at 24 hours post-light activation.

For data set [3] the following is noted: cited from earlier work.

As to benzoporphyrin derivative [BPD], the “loss of absorbance value at 690 nm in PBS compared to fully dissolved in DMSO” value in data set [1] was approximately 64%. Besides, in data set [2], the photoactivity entry was “poor photoactivity”. Moreover, in the data set with OVCAR-5 cells, the “intracellular uptake by fluorescence imaging” value was “highest uptake”. Further, the water solubility in data set [3] was less than 50 µg/mL.
